Assay results: the supplement of paper PMC10627819

Experiments:
S. aureus Newman = assay: Bliss interaction score (quartile over a dose matrix) (fitness difference); higher = more antagonism (negative = synergy)
How it was run: (§1)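 Each plate was normalised to the robust mean of its own no-drug wells, using OD595 at entry into stationary phase, with values capped at 1. This normalised growth is the fitness value. The Bliss score is the difference between observed and product-expected fitness, with single-drug fitness inferred from the combination data and quartiles taken over technical, biological and donor/recipient replicates.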

S. aureus DSM 20231 = assay: as above
How it was run: as §1

S. pneumoniae D39V [1] = assay: as above
How it was run: as §1

B. subtilis 168 = assay: as above
How it was run: as §1

S. pneumoniae D39V [2] = assay: fitness (endpoint OD595 vs no drug) (fraction); higher = more growth
How it was run: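 Fitness was measured as bacterial growth in 384-well plates inoculated at OD595 0.01 (30 µl, or 55 µl for S. pneumoniae). Media were TSB, LB Lennox or CY, at 37 °C. OD595 was read every 30 min for 14 h and background-subtracted against the first reading. Fitness is OD595 at the transition into stationary phase divided by the robust mean of no-drug control wells, capped at 1.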
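Throughout, for Bliss interaction score (quartile over a dose matrix): first quartile when negative (synergy) and third quartile when positive (antagonism).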

CC1=C(C(=O)O)N2C(=O)[C@@H](NC(=O)[C@H](N)c3ccccc3)[C@H]2SC1 [Cephalexin] + CO[C@H]1/C=C/O[C@@]2(C)Oc3c(C)c(O)c4c(O)c(c(/C=N/N5CCN(C)CC5)c(O)c4c3C2=O)NC(=O)/C(C)=C\C=C\[C@H](C)[C@H](O)[C@@H](C)[C@@H](O)[C@@H](C)[C@H](OC(C)=O)[C@@H]1C [Rifampicin]
Details | Bliss interaction score
B. subtilis 168 | 0.12
S. aureus DSM 20231 | 0.0837
S. aureus Newman | 0.0156
S. pneumoniae D39V [1] | -0.065

fitness, S. pneumoniae D39V [2], one replicate
Details | first compound 0.125 µg/mL | first compound 0.25 µg/mL | first compound 0.5 µg/mL | first compound 1 µg/mL | first compound 2 µg/mL | first compound 4 µg/mL
partner 0.025 µg/mL | – | – | – | 0.258 | 0.0265 | 0.0322
partner 0.05 µg/mL | 0.714 | 0.774 | 0.7 | – | – | –
partner 0.1 µg/mL | 0.314 | 0.257 | 0.225 | – | – | –
partner 0.2 µg/mL | 0.207 | 0.141 | 0.108 | 0 | 0 | 0

fitness, S. pneumoniae D39V [2]
Details | first compound 1 µg/mL | first compound 2 µg/mL | first compound 4 µg/mL
partner 0.05 µg/mL | 0.301 | 0.0661 | 0.0542
partner 0.1 µg/mL | 0.14 | 0.0642 | 0.0638

CC1=C(C(=O)O)N2C(=O)[C@@H](NC(=O)[C@H](N)c3ccccc3)[C@H]2SC1 [Cephalexin] + Clc1ccc(COC(Cn2ccnc2)c2ccc(Cl)cc2Cl)c(Cl)c1 [Miconazole]
Details | Bliss interaction score
B. subtilis 168 | 0.0898
S. aureus DSM 20231 | 0.0471
S. aureus Newman | 0.063
S. pneumoniae D39V [1] | -0.0715

fitness, S. pneumoniae D39V [2], one replicate
Details | first compound 0.125 µg/mL | first compound 0.25 µg/mL | first compound 0.5 µg/mL
partner 1.25 µg/mL | 0.987 | 0.878 | 0.858
partner 2.5 µg/mL | 0.885 | 0.826 | 0.819
partner 5 µg/mL | 0.89 | 0.867 | 0.893

fitness, S. pneumoniae D39V [2]
Details | first compound 1 µg/mL | first compound 2 µg/mL | first compound 4 µg/mL
partner 1.073 µg/mL | – | – | 0.0455
partner 2.145 µg/mL | – | – | 0.0466
partner 4.29 µg/mL | 0.482 | 0.37 | 0.234

CC1=C(C(=O)O)N2C(=O)[C@@H](NC(=O)[C@H](N)c3ccccc3)[C@H]2SC1 [Cephalexin] + O=C1CN(/N=C/c2ccc([N+](=O)[O-])o2)C(=O)N1 [Nitrofurantoin]
Details | Bliss interaction score
B. subtilis 168 | 0.0716
S. aureus DSM 20231 | 0.145
S. aureus Newman | 0.0656
S. pneumoniae D39V [1] | 0.168

fitness, S. pneumoniae D39V [2], one replicate
Details | first compound 0.125 µg/mL | first compound 0.25 µg/mL | first compound 0.5 µg/mL | first compound 1 µg/mL | first compound 2 µg/mL | first compound 4 µg/mL
partner 2 µg/mL | 0.934 | 0.942 | 0.958 | – | – | –
partner 4 µg/mL | 0.92 | 0.958 | 0.953 | – | – | –
partner 5.14 µg/mL | – | – | – | 0.716 | 0.243 | 0.0653
partner 8 µg/mL | 0.756 | 0.775 | 0.805 | – | – | –

fitness, S. pneumoniae D39V [2]
Details | first compound 1 µg/mL | first compound 2 µg/mL | first compound 4 µg/mL
partner 1.285 µg/mL | 0.762 | 0.226 | 0.0641
partner 2.57 µg/mL | 0.768 | 0.336 | 0.0742

CNC(C)C1CCC(N)C(OC2C(N)CC(N)C(OC3OCC(C)(O)C(NC)C3O)C2O)O1 (configuration not stated) [Gentamicin] + CO[C@H]1/C=C/O[C@@]2(C)Oc3c(C)c(O)c4c(O)c(c(/C=N/N5CCN(C)CC5)c(O)c4c3C2=O)NC(=O)/C(C)=C\C=C\[C@H](C)[C@H](O)[C@@H](C)[C@@H](O)[C@@H](C)[C@H](OC(C)=O)[C@@H]1C [Rifampicin]
main component drawn
Details | Bliss interaction score
B. subtilis 168 | 0.225
S. aureus DSM 20231 | 0.0516
S. aureus Newman | 0.0286
S. pneumoniae D39V [1] | 0.083

S. pneumoniae D39V [2], partner 0.025 µg/mL, main component drawn
Details | fitness
first compound 2 µg/mL | ≥ 1
first compound 4 µg/mL | ≥ 1
first compound 8 µg/mL | 0.935

S. pneumoniae D39V [2], partner 0.2 µg/mL, one replicate, main component drawn
Details | fitness
first compound 2 µg/mL | 0
first compound 4 µg/mL | 0
first compound 8 µg/mL | 0

CNC(C)C1CCC(N)C(OC2C(N)CC(N)C(OC3OCC(C)(O)C(NC)C3O)C2O)O1 (configuration not stated) [Gentamicin] + C[C@@H](O)[C@H]1C(=O)N2C(C(=O)O)=C(SCCNC=N)C[C@H]12 [Imipenem]
main component drawn
Details | Bliss interaction score
B. subtilis 168 | 0.199
S. aureus DSM 20231 | 0.0591
S. aureus Newman | -0.0478
S. pneumoniae D39V [1] | 0.0671

fitness, S. pneumoniae D39V [2], main component drawn
Details | partner 0.005 µg/mL | partner 0.0065 µg/mL | partner 0.01 µg/mL | partner 0.013 µg/mL | partner 0.02 µg/mL | partner 0.026 µg/mL
first compound 2 µg/mL | 0.924 | 0.989 | 0.915 | ≥ 1 | 0.914 | 0.661
first compound 4 µg/mL | 0.928 | 0.971 | 0.922 | 0.996 | 0.92 | 0.964
first compound 8 µg/mL | 0.895 | 0.917 | 0.864 | 0.931 | 0.874 | 0.892

CNC(C)C1CCC(N)C(OC2C(N)CC(N)C(OC3OCC(C)(O)C(NC)C3O)C2O)O1 (configuration not stated) [Gentamicin] + Clc1ccc(COC(Cn2ccnc2)c2ccc(Cl)cc2Cl)c(Cl)c1 [Miconazole]
main component drawn
Details | Bliss interaction score
B. subtilis 168 | -0.151
S. aureus DSM 20231 | 0.102
S. aureus Newman | 0.0417
S. pneumoniae D39V [1] | 0.0753

fitness, S. pneumoniae D39V [2], main component drawn
Details | partner 1.073 µg/mL | partner 1.25 µg/mL | partner 2.145 µg/mL | partner 2.5 µg/mL | partner 4.29 µg/mL | partner 5 µg/mL
first compound 2 µg/mL | ≥ 1 | 0.915 | ≥ 1 | 0.901 | 0.912 | 0.905
first compound 4 µg/mL | ≥ 1 | 0.884 | 0.998 | 0.893 | 0.987 | 0.911
first compound 8 µg/mL | 0.996 | 0.838 | ≥ 1 | 0.868 | 0.913 | 0.875

CNC(C)C1CCC(N)C(OC2C(N)CC(N)C(OC3OCC(C)(O)C(NC)C3O)C2O)O1 (configuration not stated) [Gentamicin] + O=C1CN(/N=C/c2ccc([N+](=O)[O-])o2)C(=O)N1 [Nitrofurantoin]
main component drawn
Details | Bliss interaction score
B. subtilis 168 | -0.138
S. aureus DSM 20231 | -0.0432
S. aureus Newman | 0.0572
S. pneumoniae D39V [1] | 0.0782

fitness, S. pneumoniae D39V [2], main component drawn
Details | partner 1.285 µg/mL | partner 2 µg/mL | partner 2.57 µg/mL | partner 4 µg/mL | partner 8 µg/mL
first compound 2 µg/mL | 0.948 | 0.861 | 0.951 | 0.791 | 0.45
first compound 4 µg/mL | 0.943 | 0.897 | 0.945 | 0.747 | 0.409
first compound 8 µg/mL | 0.953 | 0.831 | 0.957 | 0.659 | 0.368

S. pneumoniae D39V [2], partner 5.14 µg/mL, one replicate, main component drawn
Details | fitness
first compound 2 µg/mL | 0.945
first compound 4 µg/mL | 0.947
first compound 8 µg/mL | 0.918

Clc1ccc(COC(Cn2ccnc2)c2ccc(Cl)cc2Cl)c(Cl)c1 (configuration not stated) [Miconazole] + C/C(=C\C(=O)OCCCCCCCCC(=O)O)C[C@@H]1OC[C@H](C[C@@H]2O[C@H]2[C@@H](C)[C@H](C)O)[C@@H](O)[C@H]1O [Pseudomonic acid]
Details | Bliss interaction score
B. subtilis 168 | -0.0459
S. aureus DSM 20231 | 0.0125
S. aureus Newman | -0.0143
S. pneumoniae D39V [1] | 0.126

fitness, S. pneumoniae D39V [2]
Details | first compound 1.073 µg/mL | first compound 1.25 µg/mL | first compound 2.145 µg/mL | first compound 2.5 µg/mL | first compound 4.29 µg/mL | first compound 5 µg/mL
partner 0.03 µg/mL | 0.988 | 0.915 | ≥ 1 | 0.894 | ≥ 1 | 0.88
partner 0.06 µg/mL | 0.914 | 0.746 | 0.94 | 0.754 | 0.981 | 0.681
partner 0.12 µg/mL | 0.734 | 0.563 | 0.759 | 0.551 | – | 0.549
